According to patent publication US10988792B2, “Methods for antimicrobial resistance determination” (bioMerieux, Inc., priority 2009, dated 2021):

System: Twenty different strains of S. aureus (10 MRSA and 10 MSSA strains)
Assay: BOCILLIN-FL binding to a panel of MRSA and MSSA strains
Settings: signal Ex490_Em510 normalized to tryptophan Ex285_Em350; 50 μM BOCILLIN-FL (0.1 ml) + 0.9 ml strain, 30 minutes at 37° C. (FIG. 4)
Description: Twenty different strains of S. aureus (10 MRSA and 10 MSSA strains, confirmed with cefoxitin discs and Vitek-2) were propagated. A loopful of growth (1 μL) was removed from 24-hour plates and suspended in BacT/ALERT SA culture media (8 ml in a glass screw-capped tube). The tubes were vortexed well and incubated at 36° C. for 6 hours. The OD of each suspension was measured at 660 nm and adjusted to approximately the same density (0.50-0.75 OD; sample #12166 was only 0.28). 50 μM BOCILLIN™-FL (0.1 ml) was placed into each of 20 labeled microfuge tubes. A sample of each strain (0.9 ml) was added to each tube, mixed, and incubated at 37° C. for 30 minutes. The reaction mixture was then removed and added to a second set of tubes containing 0.2 ml of an oil blend (1.000 part type DF immersion oil plus 0.875 part Drakeol 5 mineral oil). The tubes were centrifuged for 2 minutes at 10,000 rpm in an A-8-11 rotor (Eppendorf 5417R). The supernatant and most of the oil was aspirated with a vacuum device. The remaining oil was removed using a Gilson P200 tip and the pellet was resuspended in 100 μl PBS. The cells were transferred to an acrylic cuvette containing 3 ml PBS and read in the FluoroLog 3 system using the FluoroScan “Bocillin” points listed in Table 3. Additionally, Vitek AST cards were run on each of the 20 isolates (from the same 24 hour plates).

Cc1cc(C)n2c1C=C1C=CC(CCC(=O)Nc3ccc(OCC(=O)N[C@@H]4C(=O)N5[C@@H]4SC(C)(C)[C@@H]5C(=O)[O-])cc3)=[N+]1[B-]2(F)F.[Na+] [BOCILLIN™-FL]
BOCILLIN-FL bound by the five benzyl-penicillin sensitive strains versus the fifteen benzyl-penicillin resistant strains: over twice the amount
